Reference: the NIST ThermoML archive (doi:10.1016/j.jct.2018.12.018)
Values joined by “and” are separate entries in the source; they are usually repeats but may differ in a detail not shown here. Equal entries are not always repeated.

Assay: xn = mol fraction of the nth substance listed
Conditions: Liquid, x1 = 0.617; for speed of sound: Frequency=3 MHz, Single path-length method; for mass density: Vibrating tube method

CCOC(F)(F)C(F)(C(F)(F)F)C(F)(F)F [nonafluoroisobutyl ethyl ether] + CCOC(F)(F)C(F)(F)C(F)(F)C(F)(F)F
Conditions | mass density | speed of sound [m/s]
293.15 K, 100 kPa | 1433.9 kg/m3 and 1434.27 kg/m3 | 637.83
293.15 K, 1000 kPa | 1436.6 kg/m3 | –
293.15 K, 5000 kPa | 1448.2 kg/m3 | –
293.15 K, 10000 kPa | 1461.3 kg/m3 | –
293.15 K, 15000 kPa | 1473.4 kg/m3 | –
293.15 K, 20000 kPa | 1484.5 kg/m3 | –
293.15 K, 25000 kPa | 1494.8 kg/m3 | –
293.15 K, 30000 kPa | 1504.7 kg/m3 | –
293.15 K, 35000 kPa | 1513.9 kg/m3 | –
293.15 K, 40000 kPa | 1522.5 kg/m3 | –
293.15 K, 45000 kPa | 1530.8 kg/m3 | –
293.15 K, 50000 kPa | 1538.7 kg/m3 | –
293.15 K, 55000 kPa | 1546.3 kg/m3 | –
293.15 K, 60000 kPa | 1553.5 kg/m3 | –
293.15 K, 65000 kPa | 1560.5 kg/m3 | –
293.15 K, 70000 kPa | 1567.2 kg/m3 | –
293.15 K, 80000 kPa | 1580 kg/m3 | –
293.15 K, 90000 kPa | 1591.9 kg/m3 | –
293.15 K, 100000 kPa | 1603.1 kg/m3 | –
293.15 K, 110000 kPa | 1613.9 kg/m3 | –
293.15 K, 120000 kPa | 1624 kg/m3 | –
293.15 K, 130000 kPa | 1633.7 kg/m3 | –
293.15 K, 140000 kPa | 1642.8 kg/m3 | –
298.15 K, 100 kPa | 1423.06 kg/m3 and 1422.8 kg/m3 | 622.13
298.15 K, 1000 kPa | 1425.6 kg/m3 | –
298.15 K, 5000 kPa | 1437.7 kg/m3 | –
298.15 K, 10000 kPa | 1451.5 kg/m3 | –
298.15 K, 15000 kPa | 1463.9 kg/m3 | –
298.15 K, 20000 kPa | 1475.4 kg/m3 | –
298.15 K, 25000 kPa | 1486.2 kg/m3 | –
298.15 K, 30000 kPa | 1496.1 kg/m3 | –
298.15 K, 35000 kPa | 1505.7 kg/m3 | –
298.15 K, 40000 kPa | 1514.5 kg/m3 | –
298.15 K, 45000 kPa | 1523 kg/m3 | –
298.15 K, 50000 kPa | 1531.1 kg/m3 | –
298.15 K, 55000 kPa | 1538.8 kg/m3 | –
298.15 K, 60000 kPa | 1546.3 kg/m3 | –
298.15 K, 65000 kPa | 1553.4 kg/m3 | –
298.15 K, 70000 kPa | 1560.2 kg/m3 | –
298.15 K, 80000 kPa | 1573.2 kg/m3 | –
298.15 K, 90000 kPa | 1585.4 kg/m3 | –
298.15 K, 100000 kPa | 1596.9 kg/m3 | –
298.15 K, 110000 kPa | 1607.6 kg/m3 | –
298.15 K, 120000 kPa | 1618 kg/m3 | –
298.15 K, 130000 kPa | 1627.8 kg/m3 | –
298.15 K, 140000 kPa | 1637.2 kg/m3 | –
303.15 K, 100 kPa | 1411.62 kg/m3 | 606.46
313.15 K, 100 kPa | 1388.53 kg/m3 and 1388.4 kg/m3 | 575.75
313.15 K, 1000 kPa | 1391.8 kg/m3 | –
313.15 K, 5000 kPa | 1405.6 kg/m3 | –
313.15 K, 10000 kPa | 1421.1 kg/m3 | –
313.15 K, 15000 kPa | 1435.1 kg/m3 | –
313.15 K, 20000 kPa | 1447.8 kg/m3 | –
313.15 K, 25000 kPa | 1459.5 kg/m3 | –
313.15 K, 30000 kPa | 1470.6 kg/m3 | –
313.15 K, 35000 kPa | 1480.8 kg/m3 | –
313.15 K, 40000 kPa | 1490.3 kg/m3 | –
313.15 K, 45000 kPa | 1499.5 kg/m3 | –
313.15 K, 50000 kPa | 1508.1 kg/m3 | –
313.15 K, 55000 kPa | 1516.4 kg/m3 | –
313.15 K, 60000 kPa | 1524.3 kg/m3 | –
313.15 K, 65000 kPa | 1531.9 kg/m3 | –
313.15 K, 70000 kPa | 1539.2 kg/m3 | –
313.15 K, 80000 kPa | 1552.9 kg/m3 | –
313.15 K, 90000 kPa | 1565.7 kg/m3 | –
313.15 K, 100000 kPa | 1577.6 kg/m3 | –
313.15 K, 110000 kPa | 1589 kg/m3 | –
313.15 K, 120000 kPa | 1599.7 kg/m3 | –
313.15 K, 130000 kPa | 1610 kg/m3 | –
313.15 K, 140000 kPa | 1619.7 kg/m3 | –
323.15 K, 100 kPa | 1365.15 kg/m3 | 545.46
333.15 K, 100 kPa | 1341.02 kg/m3 and 1340.7 kg/m3 | 515.64
333.15 K, 1000 kPa | 1344.8 kg/m3 | –
333.15 K, 5000 kPa | 1361.6 kg/m3 | –
333.15 K, 10000 kPa | 1380.1 kg/m3 | –
333.15 K, 15000 kPa | 1396.3 kg/m3 | –
333.15 K, 20000 kPa | 1410.8 kg/m3 | –
333.15 K, 25000 kPa | 1424.2 kg/m3 | –
333.15 K, 30000 kPa | 1436.4 kg/m3 | –
333.15 K, 35000 kPa | 1447.8 kg/m3 | –
333.15 K, 40000 kPa | 1458.5 kg/m3 | –
333.15 K, 45000 kPa | 1468.6 kg/m3 | –
333.15 K, 50000 kPa | 1478 kg/m3 | –
333.15 K, 55000 kPa | 1487 kg/m3 | –
333.15 K, 60000 kPa | 1495.5 kg/m3 | –
333.15 K, 65000 kPa | 1503.7 kg/m3 | –
333.15 K, 70000 kPa | 1511.5 kg/m3 | –
333.15 K, 80000 kPa | 1526.3 kg/m3 | –
333.15 K, 90000 kPa | 1540 kg/m3 | –
333.15 K, 100000 kPa | 1552.7 kg/m3 | –
333.15 K, 110000 kPa | 1564.7 kg/m3 | –
333.15 K, 120000 kPa | 1576 kg/m3 | –
333.15 K, 130000 kPa | 1586.8 kg/m3 | –
333.15 K, 140000 kPa | 1597.2 kg/m3 | –
353.15 K, 1000 kPa | 1295.2 kg/m3 | –
353.15 K, 5000 kPa | 1316.1 kg/m3 | –
353.15 K, 10000 kPa | 1338.1 kg/m3 | –
353.15 K, 15000 kPa | 1357.1 kg/m3 | –
353.15 K, 20000 kPa | 1373.9 kg/m3 | –
353.15 K, 25000 kPa | 1388.9 kg/m3 | –
353.15 K, 30000 kPa | 1402.6 kg/m3 | –
353.15 K, 35000 kPa | 1415.3 kg/m3 | –
353.15 K, 40000 kPa | 1426.8 kg/m3 | –
353.15 K, 45000 kPa | 1437.9 kg/m3 | –
353.15 K, 50000 kPa | 1448.2 kg/m3 | –
353.15 K, 55000 kPa | 1457.9 kg/m3 | –
353.15 K, 60000 kPa | 1467.2 kg/m3 | –
353.15 K, 65000 kPa | 1475.9 kg/m3 | –
353.15 K, 70000 kPa | 1484.5 kg/m3 | –
353.15 K, 80000 kPa | 1500.2 kg/m3 | –
353.15 K, 90000 kPa | 1514.8 kg/m3 | –
353.15 K, 100000 kPa | 1528.3 kg/m3 | –
353.15 K, 110000 kPa | 1541.1 kg/m3 | –
353.15 K, 120000 kPa | 1553 kg/m3 | –
353.15 K, 130000 kPa | 1564.3 kg/m3 | –
353.15 K, 140000 kPa | 1575.1 kg/m3 | –
373.15 K, 1000 kPa | 1242.1 kg/m3 | –
373.15 K, 5000 kPa | 1268.4 kg/m3 | –
373.15 K, 10000 kPa | 1295.1 kg/m3 | –
373.15 K, 15000 kPa | 1317.3 kg/m3 | –
373.15 K, 20000 kPa | 1336.2 kg/m3 | –
373.15 K, 25000 kPa | 1353.3 kg/m3 | –
373.15 K, 30000 kPa | 1368.8 kg/m3 | –
373.15 K, 35000 kPa | 1382.9 kg/m3 | –
373.15 K, 40000 kPa | 1395.6 kg/m3 | –
373.15 K, 45000 kPa | 1407.7 kg/m3 | –
373.15 K, 50000 kPa | 1418.8 kg/m3 | –
373.15 K, 55000 kPa | 1429.4 kg/m3 | –
373.15 K, 60000 kPa | 1439.5 kg/m3 | –
373.15 K, 65000 kPa | 1448.9 kg/m3 | –
373.15 K, 70000 kPa | 1457.9 kg/m3 | –
373.15 K, 80000 kPa | 1474.7 kg/m3 | –
373.15 K, 90000 kPa | 1490.2 kg/m3 | –
373.15 K, 100000 kPa | 1504.5 kg/m3 | –
373.15 K, 110000 kPa | 1517.9 kg/m3 | –
373.15 K, 120000 kPa | 1530.5 kg/m3 | –
373.15 K, 130000 kPa | 1542.3 kg/m3 | –
373.15 K, 140000 kPa | 1553.7 kg/m3 | –
393.15 K, 1000 kPa | 1183.9 kg/m3 | –
393.15 K, 5000 kPa | 1218.3 kg/m3 | –
393.15 K, 10000 kPa | 1250.8 kg/m3 | –
393.15 K, 15000 kPa | 1277 kg/m3 | –
393.15 K, 20000 kPa | 1299.1 kg/m3 | –
393.15 K, 25000 kPa | 1318.3 kg/m3 | –
393.15 K, 30000 kPa | 1335.4 kg/m3 | –
393.15 K, 35000 kPa | 1350.9 kg/m3 | –
393.15 K, 40000 kPa | 1365.1 kg/m3 | –
393.15 K, 45000 kPa | 1378.1 kg/m3 | –
393.15 K, 50000 kPa | 1390.2 kg/m3 | –
393.15 K, 55000 kPa | 1401.6 kg/m3 | –
393.15 K, 60000 kPa | 1412.4 kg/m3 | –
393.15 K, 65000 kPa | 1422.5 kg/m3 | –
393.15 K, 70000 kPa | 1432.1 kg/m3 | –
393.15 K, 80000 kPa | 1450 kg/m3 | –
393.15 K, 90000 kPa | 1466.2 kg/m3 | –
393.15 K, 100000 kPa | 1481.5 kg/m3 | –
393.15 K, 110000 kPa | 1495.5 kg/m3 | –
393.15 K, 120000 kPa | 1508.7 kg/m3 | –
393.15 K, 130000 kPa | 1521.1 kg/m3 | –
393.15 K, 140000 kPa | 1532.1 kg/m3 | –
